One assay concerns the target Syk (Homo sapiens (Human), UniProt P43405). Nature of the assay: Syk enzyme inhibition (FRET, Z-LYTE). The class given is biochemical. The method, boiled down: (§1)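 Each kinase is exposed to test compound for 2 hr at RT before substrate and ATP (pre-mix levels: c-Src 800 μM, Syk 60 μM) start a 1 hr reaction. A 1 hr protease step removes signal from non-phosphorylated peptide; inhibition against uninhibited control yields IC50.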

The subject of assay [1] is PBMCs. Kind of assay: IL-2 release in CD3/CD28 stimulated PBMC cells (assay c). In kind it is cell-based. The following applies: Homo sapiens, read-out: IC50 Values for Inhibition of Cytokine Release, PBMCs IL-2. The method, boiled down:
(§2)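 Steps: PBMCs separated from healthy whole blood by density gradient; seeded onto anti-CD3/CD28 coating (0.3 and 3 μg/mL respectively); compound added; incubated 3 days in standard tissue culture; supernatant cytokines quantified by sandwich ELISA, IC50 fitted.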

Assay [2] concerns PBMCs. Nature of the assay: IFN gamma release in CD3/CD28 stimulated PBMC cells (assay c). The class given is cell-based. The following applies: Homo sapiens, read-out: IC50 Values for Inhibition of Cytokine Release, PBMCs IFNγ. The method, boiled down:
as §2

The target of the next assay is GSK 3α (Homo sapiens (Human), UniProt P49840). Kind of assay: GSK 3α enzyme inhibition (FRET, Z-LYTE, Method 2). The class given is biochemical. The following applies: read-out: IC50 Values for Enzyme Inhibition, GSK3α. The method, boiled down:
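Human GSK3α (500 ng/mL) preincubated with compound (4, 0.4, 0.04 or 0.004 μg/mL) at RT for 2 h (Method 1) or 105 min (Method 2). Then FRET peptide (8 μM) and ATP (40 μM) added for 1 h, followed by protease development for 1 h. IC50 from the coumarin/fluorescein emission ratio relative to uninhibited control.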

The target of the next assay is c-Src (Homo sapiens (Human), UniProt P12931). Nature of the assay: c-Src enzyme inhibition (FRET, Z-LYTE). The class given is biochemical. The method, boiled down:
as §1

Assay [3] deals with PBMCs. Nature of the assay: Cell mitosis assay in PBMCs (assay g). The following applies: Homo sapiens, PBMC, test compound 5 μg/mL. The class given is cell-based. The method, boiled down: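 Metaphase arrest with 0.1 μg/mL demecolcine during the final 2 hr of a 20 hr compound exposure, which follows 48 hr of 2% PHA stimulation of healthy-donor human PBMCs. Mitotic lymphocytes counted by flow cytometry (anti-phospho-histone 3 plus propidium iodide). Inhibition expressed relative to 0.5% DMSO.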

Assay [4] concerns the target p38 MAPKα isoform (MAPK14) (Homo sapiens (Human), UniProt Q16539). Kind of assay: p38 MAPKα enzyme inhibition (FRET, Z-LYTE, Method 2). In kind it is biochemical. The method, boiled down:
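Z-LYTE FRET: p38 MAPKα (80 ng/mL for Method 1, 200 ng/mL for Method 2, pre-dilution) preincubated 2 hr RT with compound (4–0.004 μg/mL solutions), activity read via MAPKAP-K2 phosphorylation after 1 hr RT and 1 hr protease development. Coumarin/fluorescein ratio gives phosphorylation; % inhibition versus uninhibited control, IC50 from concentration-response curve.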

Assay [5] relates to PBMCs. Kind of assay: LPS-induced IL-8 release in PBMC cells (assay b). The class given is cell-based, human. The following applies: Homo sapiens, PBMC; LPS-stimulated PBMCs; read-out: IC50 Values for Inhibition of Cytokine Release, PBMCs IL-8. The method, boiled down: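 Cytokines (TNFα, IL-8) in supernatants were quantified by sandwich ELISA after a 24 h challenge with 1 ng/mL E. coli LPS at 37° C, 5% CO2. Healthy-donor PBMCs had been exposed to compound for 2 h beforehand. IC50 values were fitted from the concentration-response curves.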

Bounds are passed on as bounds.

GSK 3α, sequence (P49840 whole entry): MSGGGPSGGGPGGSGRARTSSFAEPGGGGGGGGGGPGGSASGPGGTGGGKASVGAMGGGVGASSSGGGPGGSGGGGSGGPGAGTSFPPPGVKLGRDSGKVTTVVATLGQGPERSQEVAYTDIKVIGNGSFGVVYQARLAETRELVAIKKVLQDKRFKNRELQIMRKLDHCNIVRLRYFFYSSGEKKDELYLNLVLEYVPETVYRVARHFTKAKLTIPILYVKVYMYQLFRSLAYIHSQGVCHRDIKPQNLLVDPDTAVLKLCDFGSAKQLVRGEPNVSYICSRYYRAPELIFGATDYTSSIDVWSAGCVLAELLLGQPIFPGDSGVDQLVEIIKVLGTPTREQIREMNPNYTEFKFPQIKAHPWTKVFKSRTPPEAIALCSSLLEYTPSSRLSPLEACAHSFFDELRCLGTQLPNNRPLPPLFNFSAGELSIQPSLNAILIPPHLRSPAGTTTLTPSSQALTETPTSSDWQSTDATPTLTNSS
p38 MAPKα isoform (MAPK14), sequence (Q16539 whole entry, canonical isoform): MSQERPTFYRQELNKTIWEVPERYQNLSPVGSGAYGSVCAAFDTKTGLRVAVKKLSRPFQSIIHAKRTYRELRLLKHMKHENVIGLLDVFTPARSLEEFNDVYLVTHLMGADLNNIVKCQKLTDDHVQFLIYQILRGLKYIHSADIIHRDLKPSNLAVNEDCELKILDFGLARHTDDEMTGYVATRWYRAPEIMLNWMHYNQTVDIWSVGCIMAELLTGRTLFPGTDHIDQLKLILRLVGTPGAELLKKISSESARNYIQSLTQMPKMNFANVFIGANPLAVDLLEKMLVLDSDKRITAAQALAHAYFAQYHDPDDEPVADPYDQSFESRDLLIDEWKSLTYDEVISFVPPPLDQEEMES
c-Src, sequence (P12931 whole entry, looked up): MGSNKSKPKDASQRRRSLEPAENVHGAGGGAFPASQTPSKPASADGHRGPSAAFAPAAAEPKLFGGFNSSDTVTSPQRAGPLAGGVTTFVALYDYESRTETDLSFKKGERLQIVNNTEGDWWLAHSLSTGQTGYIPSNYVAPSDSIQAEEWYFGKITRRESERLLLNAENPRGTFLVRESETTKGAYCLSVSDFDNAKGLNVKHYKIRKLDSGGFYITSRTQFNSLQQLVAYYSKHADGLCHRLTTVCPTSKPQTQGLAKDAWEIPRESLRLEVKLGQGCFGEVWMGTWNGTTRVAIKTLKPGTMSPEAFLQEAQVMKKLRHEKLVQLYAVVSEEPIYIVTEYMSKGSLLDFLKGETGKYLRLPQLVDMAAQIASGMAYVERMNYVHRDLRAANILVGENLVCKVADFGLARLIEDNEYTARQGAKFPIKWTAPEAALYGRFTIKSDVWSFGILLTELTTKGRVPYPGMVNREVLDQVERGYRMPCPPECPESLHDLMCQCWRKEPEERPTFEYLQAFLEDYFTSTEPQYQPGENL

What is called IC50 is the concentration at which inhibition is half-maximal. As a reminder, the inhibition is the share of the control response that was lost under treatment. A high value points to a strong effect. In the case of `COc1cccc(Nc2cc(Oc3ccc(NC(=O)Nc4cc(C(C)(C)C)cc([S+](C)[O-])c4OC)c4ccccc34)ccn2)c1` (stereo not drawn) [Example 41, 1-(5-(tert-Butyl)-2-methoxy-3-(methylsulfinyl)phenyl)-3-(4-((2-((3-methoxyphenyl)amino)pyridin-4-yl)oxy)naphthalen-1-yl)urea], the IC50 against Syk was found to be 247 nM; with PBMCs [1], 184 nM; with PBMCs [2], 6.9 nM; at GSK 3α it was 10200 nM; against c-Src, 72 nM; in assay [4] it was 179 nM. Also, the IC50 in the assay on PBMCs [5] is 2.9 nM. Moreover, at 5 µg/mL the inhibition with PBMCs [3] was 36%.

For the compound `COc1cccc(Nc2cc(Oc3ccc(NC(=O)Nc4cc(C(C)(C)C)cc(CNC(C)=O)c4OC)c4ccccc34)ccn2)c1` [Example 43, N-(5-(tert-Butyl)-2-methoxy-3-(3-(4-((2-((3-methoxyphenyl)amino)pyridin-4-yl)oxy)naphthalen-1-yl)ureido)benzyl)acetamide], the half-maximal inhibitory concentration (IC50) at Syk amounted to 132 nM; with PBMCs [1] it was 30.4 nM; with PBMCs [2] it was 2.8 nM; on GSK 3α, 7700 nM; against c-Src, 54 nM; in assay [4], 129 nM. Moreover, in the assay on PBMCs [5], the IC50 worked out at 1.4 nM. The compound further came in with an inhibition at 5 µg/mL with PBMCs [3] of 62.1%.

In the case of `COc1cc(Nc2cc(Oc3ccc(NC(=O)Nc4cc(C(C)(C)C)cc(CNC(C)=O)c4OC)c4ccccc34)ccn2)cc(OC)c1` [Example 44, N-(5-(tert-Butyl)-3-(3-(4-((2-((3,5-dimethoxyphenyl)amino)pyridin-4-yl)oxy)naphthalen-1-yl)ureido)-2-methoxybenzyl)acetamide], the IC50 on Syk was 95 nM; in the assay on PBMCs [1], 28.3 nM; in the assay on PBMCs [2], 2.3 nM; on GSK 3α it was more than 15100 nM; against c-Src it was 67 nM; in assay [4] it was 175 nM. For the same compound, the IC50 in the assay with PBMCs [5] was determined as 1.3 nM. This compound displayed an inhibition at 5 µg/mL in the assay on PBMCs [3] of 42.8%.

As to `COc1cc(Nc2cc(Oc3ccc(NC(=O)Nc4cc(C(C)(C)C)cc([S+](C)[O-])c4OC)c4ccccc34)ccn2)ccc1C(=O)NCCN1CCOCC1` (stereo not drawn) [Example 72, 4-((4-((4-(3-(5-(tert-Butyl)-2-methoxy-3-(methylsulfinyl)phenyl)ureido)naphthalen-1-yl)oxy)pyridin-2-yl)amino)-2-methoxy-N-(2-morpholinoethyl)benzamide], the 50% inhibitory concentration (IC50) on Syk was 98 nM; with PBMCs [1], 156 nM; with PBMCs [2] it was 7.5 nM; on GSK 3α, 3660 nM; on c-Src it was 20 nM; in assay [4] it was 32 nM. Further, in the assay on PBMCs [5], the IC50 worked out at 2.1 nM. The inhibition at 5 µg/mL in the assay on PBMCs [3] turned out to be 36.8%.

For the compound `COc1cc(Nc2cc(Oc3ccc(NC(=O)Nc4cc(C(C)(C)C)cc(CC(N)=O)c4OC)c4ccccc34)ccn2)ccc1C(=O)NCC(CO)(CO)CO` [Example 73, 4-((4-((4-(3-(3-(2-Amino-2-oxoethyl)-5-(tert-butyl)-2-methoxyphenyl)ureido)naphthalen-1-yl)oxy)pyridin-2-yl)amino)-N-(3-hydroxy-2,2-bis(hydroxymethyl)propyl)-2-methoxybenzamide], the 50% inhibitory concentration (IC50) is 120 nM on Syk; 60.1 nM in the assay on PBMCs [1]; 6.3 nM in the assay with PBMCs [2]; 1980 nM at GSK 3α; 29 nM on c-Src; 31 nM in assay [4]. Also, the concentration for half-maximal inhibition (IC50) in the assay on PBMCs [5] was 1.5 nM. Moreover, in the assay with PBMCs [3], the inhibition at 5 µg/mL was found to be 19.8%.

In the case of `COCCOCCOCCNC(=O)c1cc(Nc2cc(Oc3ccc(NC(=O)Nc4cc(C(C)(C)C)cc(CNC(=O)CN(C)C)c4OC)c4ccccc34)ccn2)cc(OC)c1` [Example 77, 3-((4-((4-(3-(5-(tert-Butyl)-3-((2-(dimethylamino)acetamido)methyl)-2-methoxyphenyl)ureido)naphthalen-1-yl)oxy)pyridin-2-yl)amino)-5-methoxy-N-(2-(2-(2-methoxyethoxy)ethoxy)ethyl)benzamide], the IC50 against Syk was found to be 51 nM; with PBMCs [1], 18.9 nM; in the assay with PBMCs [2], 2.3 nM; at GSK 3α it was 2620 nM; against c-Src it was 17 nM; in assay [4], 20 nM. In addition, the IC50 with PBMCs [5] came to 0.9 nM. Further, in the assay with PBMCs [3], 5 µg/mL produced 58.7% inhibition.

Source of the values: US9890185B2, “Urea derivatives useful as kinase inhibitors” (Respivert Limited, priority 2013, dated 2018).
